Measurements published in EP1285920A1, “C10 Ester sustituted taxanes as antitumor agents” (Florida State University Research Foundation, Inc., priority 2001, dated 2003).
Where two headings read alike, the source gives them in different places.

Key:
HCT116 carcinoma = tested on: HCT116 carcinoma
Method in brief: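 Mice bearing HCT116 tumours received a single i.v. maximum tolerated dose per compound, formulated in 5% ethanol, 5% Cremophor, 90% isotonic saline. Study ended on Day 60; complete response meant no palpable tumour at study end.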

[1] = tested on: Panc-1 pancreatic carcinoma; conditions: for Mean Score: tumor scoring system
Procedure: The dosing volume was 0.3 ml per 20 g mouse.
Female NCr-nude mice were implanted subcutaneously with 1 mm^3 Panc-1 pancreatic carcinoma fragments in the flank and sorted into treatment groups of six mice each. […] Dosing was initiated on Day 1. The antitumor compounds were given i.v. at an estimated maximum tolerated dose (MTD) appropriate for each agent on a qd x 1 schedule (single administration of compound). […] The vehicle was administered i.v. to control mice in Group 1 on the qd x 1 schedule.
The mean days of survival is the number of days after which a neoplasm reached a size of 1.5 g and the animal was euthanized. A complete response is obtained if the tumor shrinks to a size smaller than its size on Day 1 of the study.

SK-MES carcinoma = assay: In vivo evaluation against SK-MES human lung carcinoma xenograft (i.v., Example 11); conditions: SK-MES
Procedure: (§1) Antitumor compounds were formulated for an i.v. dosing regime prepared in the following vehicle: 10% ethanol, 10% Cremophor and 80% isotonic saline.
(§2) Vehicle control animals were dosed twice intravenously with half the total volume being given separated by one hour. The study was terminated on Day 60.
(§3) A complete response is obtained if the tumor is not palpable at the end of the study.
(§4) A tumor scoring system was designed to provide a more quantitative ranking of efficacy (therapeutic potential) among the antitumor agents evaluated against the different human solid tumor xenografts. Each mouse in a study was given a score of from 1 to 10 at the end of the study. The scores can be summarized as follows:
(§5) The individual score for each mouse was averaged into a mean score for each treatment group. […]

[2] = tested on: NCI-H1299 (H1299) carcinoma; assay: In vivo evaluation against NCI-H1299 human lung carcinoma xenograft (i.v., Example 11)
Procedure: as §1, §2, §3, §4, §5
The treatment protocol for the H1299 test was identical to the SK-MES test protocol. […]

[3] = HCT116, Taxol i.p. 18 mg/kg qd x 5 (Group 3)
[4] = number of 5 mice, Taxol 18 mg/kg i.p. qd x 5
[5] = number of mice, Taxol 15 mg/kg i.p. qd x 5, 6 mice, Day 63
[6] = number of mice, i.v. qd x 1, mg/kg: Taxol 24, 0854 46.6, 1011 107.6, 6 mice/group, Day 63
[7] = i.v. split dose qd x 1, six mice per group
[8] = tumor score 1 to 10 per mouse, group mean

For `CC(=O)O[C@H]1C(=O)[C@@]2(C)[C@H]([C@H](OC(=O)c3ccccc3)[C@]3(O)C[C@H](OC(=O)[C@H](O)[C@@H](NC(=O)c4ccccc4)c4ccccc4)C(C)=C1C3(C)C)[C@]1(OC(C)=O)CO[C@@H]1C[C@@H]2O` [Taxol, paclitaxel, reference compound], the “increase in survival compared to control Group 1” value (HCT116 carcinoma; HCT116, Taxol 36 mg/kg i.v. qd x 1) was 24%, the Partial Response (HCT116 carcinoma; [3]) was “one” and the “survival extension compared to Group 1 control mice” value (HCT116 carcinoma; [3]) was 84%. The MDS (HCT116 carcinoma; HCT116, i.v. qd x 1 (compounds single MTD; Taxol 36 mg/kg split), days until tumor 2.0 g, ended Day 60) was 27.5 days, the Stable Disease (HCT116 carcinoma; HCT116, i.v. qd x 1, five mice per group) was “one” and the “Mean Score” value (HCT116 carcinoma; Taxol 18 mg/kg i.p. qd x 5, 5 mice) was 3.6 ± 1.4. For the same compound, the “Mean Score” value (HCT116 carcinoma; i.v. qd x 1 at MTD, 5 mice/group, Day 60, doses as in E3) was 2.2 ± 0.5, the “MDS (n)” value (HCT116 carcinoma; mean days of survival until tumor reached 2.0 g, i.v. qd x 1 at MTD, 5 mice/group, study ended Day 60, mg/kg: Taxol 36 (split doses), 0503 72.6, 0536 49, 0663 159, 0670 123, 0687 159, 0706 108, 0908 159, 0947 76.9, 0951 72.6, 0983 72.6, 0999 49, 1003 49, 1011 108) was 27.5 ± 1.7 (4) days and the “tolerability” value (HCT116 carcinoma; mouse, in vivo, iv) was “well-tolerated”. For the same compound, the “Stable Disease” value (HCT116 carcinoma; number of 5 mice, tumor did not reach 2.0 g by end of study, i.v. qd x 1 at MTD, Day 60, doses as in E3) was 1, the “Complete Response” value (HCT116 carcinoma; number of 5 mice, tumor not palpable at end of study, i.v. qd x 1 at MTD, Day 60, doses as in E3) was 0 and the “Partial Response” value (HCT116 carcinoma; number of 5 mice, tumor smaller than on Day 1, i.v. qd x 1 at MTD, Day 60, doses as in E3) was 0. For the same compound, the “Complete Response” value (HCT116 carcinoma; [4]) was 0, the “Partial Response” value (HCT116 carcinoma; [4]) was 1 and the “Stable Disease” value (HCT116 carcinoma; [4]) was 0. The Survivors (HCT116 carcinoma; [4]) was 1, the “Toxic Deaths” value (HCT116 carcinoma; [4]) was 0 and the Survivors (HCT116 carcinoma; number of 5 mice, i.v. qd x 1 at MTD, Day 60, doses as in E3) was 1. For the same compound, the “Toxic Deaths” value (HCT116 carcinoma; number of 5 mice, i.v. qd x 1 at MTD, Day 60, mg/kg: Taxol 36 (split doses), 0503 72.6, 0536 49, 0663 159, 0670 123, 0687 159, 0706 108, 0908 159, 0947 76.9, 0951 72.6, 0983 72.6, 0999 49, 1003 49, 1011 108) was 0, the MDS ([1]; Panc-1 (Example 18), Taxol 24 mg/kg i.v. qd x 1, four mice, tumor 1.5 g, ended Day 63) was 34.7 days and the Toxic Deaths ([1]; Panc-1 (Example 18), Taxol i.p. 15 mg/kg qd x 5 (Group 3), six animals) was “four”. For the same compound, the Stable Disease ([1]; Panc-1 (Example 18), i.v. qd x 1, Taxol 24 mg/kg split, six mice per group) was “one”, the “toxic deaths / toxic lethalities” value ([1]; Panc-1 (Example 18), i.v. qd x 1, six mice per group) was “One” and the “MDS (n)” value ([1]; mean days of survival until neoplasm reached 1.5 g, i.v. qd x 1, mg/kg: Taxol 24, 0854 46.6, 1011 107.6, 6 mice/group, terminated Day 63) was 34.7 ± 3.4 days. For the same compound, the “Toxic Deaths” value ([1]; number of mice, Taxol 15 mg/kg i.p. qd x 5, 6 mice) was 4, the “Complete Response” value [1, 5] was 0 and the “Partial Response” value [1, 5] was 1. For the same compound, the “Stable Disease” value [1, 5] was 0, the Survivors [1, 5] was 1 and the “Toxic Deaths” value ([1]; number of mice, i.v. qd x 1, mg/kg: Taxol 24, 0854 46.6, 1011 107.6, 6 mice/group) was 1. For the same compound, the “Complete Response” value [1, 6] was 0, the “Partial Response” value [1, 6] was 0 and the “Stable Disease” value [1, 6] was 1. For the same compound, the Survivors [1, 6] was 1, the “Mean Score” value ([1]; Taxol 15 mg/kg i.p. qd x 5, 6 mice) was 1.2 ± 1.2 and the “Mean Score” value ([1]; i.v. qd x 1, mg/kg: Taxol 24, 0854 46.6, 1011 107.6, 6 mice/group) was 2.2 ± 0.8. The “survival extension compared to vehicle controls” value (SK-MES carcinoma; Taxol 36 mg/kg i.v.) was 30%, the “MDS (n)” value (SK-MES carcinoma; i.v. MTD in two half doses one hour apart, qd x 1, Taxol 36 mg/kg, 0503 72.1 mg/kg, days until tumor 1.5 g, ended Day 60) was 16 ± 2.0 (6) days and the “Toxic Deaths” value (SK-MES carcinoma; [7]) was 0. The Survivors (SK-MES carcinoma; i.v. split dose qd x 1, six mice per group, Day 60) was 0, the “Stable Disease” value (SK-MES carcinoma; i.v. split dose qd x 1, tumor below 1.5 g at termination) was 0 and the “Complete Response” value (SK-MES carcinoma; i.v. split dose qd x 1, tumor not palpable at end of study) was 0. For the same compound, the “Partial Response” value (SK-MES carcinoma; i.v. split dose qd x 1, tumor smaller than on Day 1) was 0, the “Mean Score” value (SK-MES carcinoma; [8]) was 1.3 ± 0.3 and the “survival extension compared to vehicle-treated animals” value ([2]; Taxol 36 mg/kg i.v., five animals) was 10%. For the same compound, the “MDS (n)” value ([2]; i.v. MTD in two half doses one hour apart, qd x 1, Taxol 36 mg/kg, 0503 72.1 mg/kg, ended Day 60) was 27.0 ± 4.6 (5) days, the “Complete Response” value ([2]; i.v. split dose qd x 1) was 0 and the “Stable Disease” value ([2]; i.v. split dose qd x 1) was 0. The “antitumor activity” value ([2]; i.v. split dose qd x 1) was “not active”, the Survivors [2, 7] was 1 and the “Toxic Deaths” value [2, 7] was 0. For the same compound, the “Mean Score” value [2, 8] was 2.7 ± 1.3.
